The results in this text go back to patent US20220168322A1, “NOVEL STAT3 INHIBITORS IDENTIFIED BY STRUCTURE-BASED VIRTUAL SCREENING INCORPORATING SH2 DOMAIN FLEXIBILITY” (Board of Regents, The University of Texas System, priority 2018, published 2022).

Like-named read-outs stand apart in the source and are kept apart here.

For one assay, the target named is T1, STAT3 (aa 127-722) (Homo sapiens, UniProt P40763).
T1 construct: STAT3 (aa 127-722) at a concentration of 200 nM
The experiment in a line: SPR assay of STAT3 binding to immobilized EGFR pY1068 phosphododecapeptide. As to conditions: for inhibition at 10 µM / inhibition at 100 µM / inhibition of STAT3 binding to EGFR pY-peptide: SPR; for inhibition at 10 µM / inhibition at 100 µM: read-out: inhibition of STAT3 binding to EGFR pY-peptide; for % of max binding at 10 μm: pEGFRp-STAT3 binding (SPR) at pH 8, compound 10 μm; for % of max binding at 100 μm: pEGFRp-STAT3 binding (SPR) at pH 8, compound 100 μm; for inhibition at 100 µM / inhibition of STAT3 binding to EGFR pY-peptide: 100 μM. The protocol: Surface plasmon resonance (SPR) assay of STAT3 binding pY-peptide. STAT3 (aa 127-722) at a concentration of 200 nM in 20 mM Tris buffer (pH 8) was pre-incubated without or with compounds prior to injection onto an SA chip immobilized with phosphorylated and control non-phosphorylated biotinylated EGFR derived dodecapeptides based on sequence surrounding Y1068 (Shao et al., 2004), on a Biacore 3000 biosensor (Biacore inc., Piscataway N.J.) and analyzed as described (Bharadwaj et al., 2016).
Surface Plasmon Resonance (SPR) was performed on the 24 compounds to determine their ability to block binding of purified STAT3 to an immobilized phosphododecapeptide based on EGFR Y1068 (EGFR pY-peptide), as described (Xu et al., 2009).
A general note: Surface plasmon resonance follows binding to a sensor surface in real time, without labels.

The next assay has as its system MDA-MB-468 cells. Description: Anchorage-independent and dependent cell growth (MTT), MDA-MB-468. Format: cell-based. The note with it: NA = No Activity. The protocol: MDA-MB-468 cells were cultured for 48 hrs in complete DMEM with 10% FBS±compound (0/0.1/0.3/1/3/10/100 μM) in cell-culture-treated plates and viable cells quantitated using MTT. Relative % viability (viability after any treatment÷viability of untreated cells×100) was plotted as a function of Log [M] compound, and IC50 values calculated using GraphPad.
MDA-MB-468 cells were cultured for 72 hrs in complete DMEM with 10% FBS±compound (0/0.1/0.3/1/3/10/100 μM) in cell-culture-treated ultra-low attachment 96-well plates and viable cells quantitated using MTT. Relative % viability (viability after any treatment viability of untreated cells×100) was plotted as a function of Log [M] compound, and IC50 values calculated using GraphPad.
(§1) Anchorage-independent and dependent cell growth. Cells were cultured in triplicates in complete DMEM±drug, in ultra-low attachment 96 well plates for 72 hrs or cell-culture treated plates for 48 hrs and viable cells were quantitated using MTT. Optical density (OD) was measured at 590 nm using a 96-well multi-scanner (Synergy H1 microplate reader, BioTek Inc, VT, USA). Relative % viability (viability after any treatment÷viability of untreated cells×100) was plotted along Y-axis. At least 2 replicates experiments were performed and were used for IC50 calculation using GraphPad software.

The subject of the next assay is G-CSF-stimulated pSTAT3. The experiment in a line: Inhibition of G-CSF-stimulated pSTAT3 in Kasumi-1 cells (Luminex, pSTAT3/GAPDH). Format: cell-based. As to conditions: for activity at 10 µM: Kasumi 1, single concentration of 10 μM, G-CSF 100 ng/ml, pSTAT3/GAPDH relative to DMSO treated cells, read-out: % of Control Stimulated pSTAT3; for inhibition at 10 µM: Kasumi-1 cells, read-out: inhibition of G-CSF-induced pY-STAT3. As for the experimental part: […] Total protein was assayed for pSTAT3 and GAPDH levels by Luminex. GAPDH-normalized pSTAT3 values were divided by the same for untreated cells and expressed as percentage. These values were plotted as a function of Log [M] compound, and IC50 calculated using GraphPad. Data from representative experiments from at least two repeats is shown.
Luminex bead-based assay. Luminex bead-based assays were used to determine levels of pSTAT3, pSTAT1, pSTAT5, and GAPDH, as described (Bharadwaj et al., 2015). […]

The next assay concerns MDA-MB-231 cells. The experiment in a line: Anchorage-independent and dependent cell growth (MTT), MDA-MB-231. Type of assay: cell-based. As to conditions: NA = No Activity. As for the experimental part:
MDA-MB-231 cells were cultured for 48 hrs in complete DMEM with 10% FBS±compound (0/0.1/0.3/1/3/10/100 μM) in cell-culture-treated plates and viable cells quantitated using MTT. Relative % viability (viability after any treatment÷viability of untreated cells×100) was plotted as a function of Log [M] compound, and IC50 values calculated using GraphPad.
MDA-MB-231 cells were cultured for 72 hrs in complete DMEM with 10% FBS±compound (0/0.1/0.3/1/3/10/100 μM) in cell-culture-treated ultra-low attachment 96-well plates and viable cells quantitated using MTT. Relative % viability (viability after any treatment÷viability of untreated cells×100) was plotted as a function of Log [M] compound, and IC50 values calculated using GraphPad.
as §1

The mark [1] stands for this setting: Homo sapiens, MDA-MB-468, 48 h, anchorage dependent, cell-culture treated plates, 48 hrs, read-out: Growth AD IC50 468.
Where [2] appears, read: Homo sapiens, MDA-MB-468, 72 h, anchorage independent, ultra-low attachment plates, 72 hrs, read-out: Growth AI IC50 468.
Setting [3] is: anchorage dependent, cell-culture treated plates, 48 hrs, read-out: Growth AD IC50 468.
[4] abbreviates: Homo sapiens, MDA-MB-231, 48 h, anchorage dependent, cell-culture treated plates, 48 hrs, read-out: Growth AD IC50 231.
Where [5] appears, read: anchorage dependent, cell-culture treated plates, 48 hrs, read-out: Growth AD IC50 231.
Where [6] appears, read: Homo sapiens, MDA-MB-231, 72 h, anchorage independent, ultra-low attachment plates, 72 hrs, read-out: Growth AI IC50 231.
[7] abbreviates: Kasumi1 cells, G-CSF induced pSTAT3/GAPDH by Luminex.
Setting [8] is: anchorage dependent, cell-culture treated plates, 48 hrs.
Setting [9] is: anchorage independent, ultra-low attachment plates, 72 hrs.

T1 sequence (P40763 127-722 isoform P40763-3 limits assumed, species assumed): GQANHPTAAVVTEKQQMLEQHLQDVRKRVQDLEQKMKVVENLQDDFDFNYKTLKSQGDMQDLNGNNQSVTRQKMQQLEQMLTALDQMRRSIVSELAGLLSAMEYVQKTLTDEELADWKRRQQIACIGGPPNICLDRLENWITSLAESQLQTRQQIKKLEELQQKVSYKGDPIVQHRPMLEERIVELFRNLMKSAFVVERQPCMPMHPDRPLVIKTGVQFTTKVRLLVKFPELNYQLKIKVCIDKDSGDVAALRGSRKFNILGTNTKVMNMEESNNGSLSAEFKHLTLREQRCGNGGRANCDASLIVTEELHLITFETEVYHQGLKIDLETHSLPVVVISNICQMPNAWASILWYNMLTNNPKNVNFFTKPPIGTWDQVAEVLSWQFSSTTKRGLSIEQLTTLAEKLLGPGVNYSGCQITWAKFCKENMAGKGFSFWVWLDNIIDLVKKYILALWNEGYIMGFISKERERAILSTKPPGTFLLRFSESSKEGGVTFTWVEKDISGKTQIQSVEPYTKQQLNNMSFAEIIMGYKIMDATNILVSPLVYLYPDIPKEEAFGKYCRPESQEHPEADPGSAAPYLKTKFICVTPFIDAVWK

As to `COc1cc(/C=C2/SC(=O)NC2=O)ccc1OCc1ccc(Cl)cc1Cl` [SPEC-98], the inhibition (in general, the share of the control response that was lost under treatment) at 10 µM is 29 to 71% at STAT3 (aa 127-722) and 20 to 80% in the assay with G-CSF-stimulated pSTAT3 (Homo sapiens). Further, at STAT3 (aa 127-722), the inhibition at 100 µM lay in the range of 67 to 93%. Also, the “% of max binding at 10 μm” value at STAT3 (aa 127-722) is 70.4%. Besides, at STAT3 (aa 127-722), the “% of max binding at 100 μm” value is 7.8%. For the same compound, the IC50 (usually the concentration that inhibits the measured activity by half) is 25.6 to 65.2 µM in the assay on MDA-MB-468 cells (setting [1]); 64.1 ± 3.1 µM in the assay with MDA-MB-468 cells (setting [2]); 32.5 ± 3.7 µM in the assay with MDA-MB-468 cells (setting [3]); 25.6 to 65.2 µM in the assay on MDA-MB-231 cells (setting [4]); 25.6 ± 3.9 µM with MDA-MB-231 cells (setting [5]). In the assay on G-CSF-stimulated pSTAT3 (Homo sapiens, Kasumi1 cells), the activity at 10 µM was 20%.

For `Cc1cc(NS(=O)(=O)c2ccc(NC(=O)COc3ccc(C(C)(C)c4ccccc4)cc3)cc2)nc(C)n1` [SPEC-106, N-(4-{[(2,6-dimethyl-4-pyrimidinyl)amino]sulfonyl}phenyl)-2-[4-(1-methyl-1-phenylethyl)phenoxy]acetamide], the inhibition at 10 µM at STAT3 (aa 127-722) is 29 to 71%; with G-CSF-stimulated pSTAT3 (Homo sapiens), 20 to 80%. Moreover, the inhibition at 100 µM on STAT3 (aa 127-722) is 67 to 93%. The “% of max binding at 10 μm” value at STAT3 (aa 127-722) was 68.9%. For the same compound, the “% of max binding at 100 μm” value on STAT3 (aa 127-722) was 20.4%. Moreover, the IC50 in the assay on MDA-MB-468 cells (setting [1]) is 25.6 to 65.2 µM; in the assay on MDA-MB-468 cells (setting [2]), 34.9 ± 1.3 µM; in the assay with MDA-MB-468 cells (setting [3]) it was 44.7 µM; in the assay with MDA-MB-231 cells (setting [4]), 25.6 to 65.2 µM; with MDA-MB-231 cells (setting [6]), 38.9 µM; in the assay with MDA-MB-231 cells (setting [5]) it was 39 µM. For the same compound, the activity at 10 µM in the assay on G-CSF-stimulated pSTAT3 (Homo sapiens, Kasumi1 cells) came out at 1%.

With `COc1ccc(Br)cc1/C=C/C(=O)c1ccc(NC(C)=O)cc1` [SPEC-29, N-(4-[(E)-3-(5-bromo-2-methoxyphenyl)prop-2-enoyl)phenyl]acetamide], the values for the inhibition at 10 µM at STAT3 (aa 127-722) and in the assay on G-CSF-stimulated pSTAT3 (Homo sapiens) were 29 to 71% and 20 to 80%, respectively. On STAT3 (aa 127-722), the “inhibition of STAT3 binding to EGFR pY-peptide” value stood at 78%. The inhibition at 100 µM on STAT3 (aa 127-722) lay in the range of 67 to 93%. The “% of max binding at 10 μm” value at STAT3 (aa 127-722) stood at 69.6%. In addition, the “% of max binding at 100 μm” value at STAT3 (aa 127-722) was 22.1%. Further, the IC50 with MDA-MB-468 cells (setting [1]) was 2.4 to 12.1 µM; in the assay with MDA-MB-468 cells (setting [2]), 1.8 to 11.1 µM; with MDA-MB-468 cells (setting [3]), 2.4 ± 2.5 µM; in the assay on MDA-MB-468 cells (anchorage independent, ultra-low attachment plates, 72 hrs, read-out: Growth AI IC50 468), 1.8 ± 1.6 µM; in the assay with G-CSF-stimulated pSTAT3 (setting [7]), 2.7 µM; in the assay with MDA-MB-231 cells (setting [4]) it was 3 to 12.2 µM. The IC50 was found to be 9.5 ± 4.1 µM in the assay with MDA-MB-231 cells (setting [6]) and 3 ± 2.2 µM in the assay on MDA-MB-231 cells (setting [5]). Further, the activity at 10 µM in the assay with G-CSF-stimulated pSTAT3 (Homo sapiens, Kasumi1 cells) came to 0%.

Regarding `O=C(O)COc1c(Br)cc(/C=C2\SC(=O)N(CC(=O)N3CCN(c4ccccc4)CC3)C2=O)cc1Br` [SPEC-85, [2,6-dibromo-4-({2,4-dioxo-3-[2-oxo-2-(4-phenyl-1-piperazinyl)ethyl]-1,3-thiazolidin-5-ylidene}methyl)phenoxy]acetic acid], on STAT3 (aa 127-722), the inhibition at 10 µM lay in the range of 29 to 71%, the “inhibition of STAT3 binding to EGFR pY-peptide” value is listed as 95%, the “% of max binding at 10 μm” value is 67.3% and the “% of max binding at 100 μm” value is on record as 9.5%. Besides, the “Growth AD IC50 468” value in the assay with MDA-MB-468 cells (setting [8]) is given as “no activity”. Also, in the assay on MDA-MB-468 cells (setting [9]), the “Growth AI IC50 468” value is on record as “no activity”. In the assay on G-CSF-stimulated pSTAT3 (Homo sapiens, Kasumi 1, Kasumi1 cells, G-CSF induced pSTAT3/GAPDH by Luminex), the IC50 is above 100 µM. Further, the activity at 10 µM in the assay with G-CSF-stimulated pSTAT3 (Homo sapiens, Kasumi1 cells) worked out at 2%. The inhibition at 10 µM with G-CSF-stimulated pSTAT3 (Homo sapiens) fell in the range of 20 to 80%. Further, the “G-CSF pSTAT3 IC50” value with G-CSF-stimulated pSTAT3 (setting [7]) was “almost no activity”. Also, the “Growth AD IC50 231” value with MDA-MB-231 cells (setting [8]) is listed as “no activity”. Further, the “Growth AI IC50 231” value with MDA-MB-231 cells (setting [9]) was “no activity”.

Take `CC(=O)Nc1nc(C)c(-c2csc(Nc3ccccc3)n2)s1` [SPEC-93, N-(2-aniline-4′-methyl-4,5′-bi-1,3-thiazol-2′-yl)acetamide]: at STAT3 (aa 127-722), the inhibition at 10 µM was in the range of 29 to 71%, the inhibition at 100 µM was 67 to 93%, the “% of max binding at 10 μm” value is listed as 116.8% and the “% of max binding at 100 μm” value is 28.3%. Also, the activity at 10 µM in the assay on G-CSF-stimulated pSTAT3 (Homo sapiens, Kasumi1 cells) amounted to 0%. In the assay on G-CSF-stimulated pSTAT3 (Homo sapiens), the inhibition at 10 µM was 20 to 80%. Also, the IC50 in the assay with MDA-MB-231 cells (setting [6]) stood at 15.7 ± 1.3 µM.

Take `COc1ccc(/C=C/C(=O)c2cc(Br)ccc(=O)c2O)cc1` [SPEC-8, 5-bromo-2-hydroxy-3-[3-(4-methoxyphenyl)acryloyl]-2,4,6-cycloheptatrien-1-one]: at STAT3 (aa 127-722), the inhibition at 10 µM lay within 29 to 71%, the inhibition at 100 µM is 67 to 93%, the “% of max binding at 10 μm” value came out at 49.1% and the “% of max binding at 100 μm” value was 30.3%. Moreover, in the assay on G-CSF-stimulated pSTAT3 (Homo sapiens, Kasumi1 cells), the activity at 10 µM stood at 0%. Also, in the assay on G-CSF-stimulated pSTAT3 (Homo sapiens), the inhibition at 10 µM was in the range of 20 to 80%. Moreover, the IC50 in the assay with G-CSF-stimulated pSTAT3 (setting [7]) came out at 4.1 µM. Besides, the IC50 in the assay on MDA-MB-231 cells (setting [6]) stood at 26.1 µM.
